Source: article PMC10338316, “Functional and structural characterization of Streptococcus pneumoniae pyruvate kinase involved in fosfomycin resistance” (The Journal of Biological Chemistry, 2023)

Legend:
[1] = biological target: T1, SpPYK (Streptococcus pneumoniae, UniProt Q8DQ84); experiment: X-ray crystal structure (FBP, PEP/FBP at […] Å, oxalate/FBP); conditions: allosteric activator; effector binding site in the C domain
T1 construct: gene pykF; recombinant, E. coli BL21(DE3) derivative, His60 Ni resin (tag details in supplement); homotetramer; single pyk gene

[2] = biological target: T1, SpPYK; experiment: lactate dehydrogenase coupled assay, NADH absorbance at […] nm; format: biochemical; conditions: allosteric activator (modest), 2 mM G6P; PEP varied, 3 mM ADP, pH 7.5, 25 °C
[3] = biological target: T1, SpPYK; experiment: X-ray crystal structure (PEP; PEP/FBP at […] Å); format: binding; conditions: catalytic site, Mg2+ and K+
[4] = biological target: T1, SpPYK; experiment: X-ray crystal structure (oxalate; oxalate/FBP); format: binding; conditions: catalytic site; enolpyruvate analog; weak density for a second oxalate in the effector site
[5] = tested on: C=C(OP(=O)(O)O)C(=O)O; experiment: purified protein; conditions: 3 mM ADP, 10 mM MgCl2, 100 mM KCl, 20 mM HEPES pH 7.5, 25 °C, no effector, Hill coefficient 1.88 ± 0.10
[6] = tested on: Nc1ncnc2c1ncn2[C@@H]1O[C@H](COP(=O)(O)OP(=O)(O)O)[C@@H](O)[C@H]1O; experiment: purified protein; conditions: 3 mM PEP, 10 mM MgCl2, 100 mM KCl, 20 mM HEPES pH 7.5, 25 °C, Hill coefficient 1.47 ± 0.07
[7] = biological target: the molecule itself; experiment: crystal structure; X-ray crystal structures of SpPYK in six states (apo, oxalate, oxalate/FBP, FBP, PEP, PEP/FBP); vapor diffusion at 25 °C, 15 to 20 mg/ml protein in 20 mM HEPES pH 7.5, 150 mM NaCl, for the ligand-bound forms with 100 mM KCl, 20 mM MgCl2 and 5-20 mM ligand(s); protomers of the tetramer

O=P(O)(O)OC[C@H]1OC(O)(COP(=O)(O)O)[C@@H](O)[C@@H]1O (stereo partly shown) [FBP, fructose 1,6-bisphosphate]
X-ray crystal structure (FBP, PEP/FBP at 1.8 Å, oxalate/FBP) [1]: FBP is found at the effector binding site in the C domain

O=P(O)(O)OC[C@H]1OC(O)[C@H](O)[C@@H](O)[C@@H]1O (stereo partly shown) [G6P, glucose 6-phosphate]
lactate dehydrogenase coupled assay, NADH absorbance at 340 nm [2]: only a modest activation effect was observed upon G6P addition

C=C(OP(=O)(O)O)C(=O)O [PEP, phosphoenolpyruvate]
X-ray crystal structure (PEP; PEP/FBP at 1.8 Å) [3]: The bound PEP or oxalate is seen in the catalytic site

O=C(O)C(=O)O [oxalate]
X-ray crystal structure (oxalate; oxalate/FBP) [4]: The bound PEP or oxalate is seen in the catalytic site

SpPYK (Streptococcus pneumoniae R6)
K0.5 [5]: 1.36 ± 0.06 mM | K0.5 [6]: 1.09 ± 0.06 mM

B1: Streptococcus pneumoniae pyruvate kinase (enzyme)
chain: MNKRVKIVATLGPAVEIRGGKKFGEDGYWGEKLDVEASAKNIAKLIEAGANTFRFNFSHGDHQEQGERMATVKLAEKIAGKKVGFLLDTKGPEIRTELFEGEAKEYSYKTGEKIRVATKQGIKSTREVIALNVAGALDIYDDVEVGRQVLVDDGKLGLRVVAKDDATREFEVEVENDGIIAKQKGVNIPNTKIPFPALAERDNDDIRFGLEQGINFIAISFVRTAKDVNEVRAICEETGNGHVQLFAKIENQQGIDNLDEIIEAADGIMIARGDMGIEVPFEMVPVYQKMIIKKVNAAGKVVITATNMLETMTEKPRATRSEVSDVFNAVIDGTDATMLSGESANGKYPLESVTTMATIDKNAQALLNEYGRLDSDSFERNSKTEVMASAVKDATSSMDIKLVVTLTKTGHTARLISKYRPNADILALTFDELTERGLMLNWGVIPMLTDAPSSTDDMFEIAERKAVEAGLVESGDDIVIVAGVPVGEAVRTNTMRIRTVR
notes: pyruvate kinase (PYK) of Streptococcus pneumoniae, wild type; the strain of the cloned gene and the construct limits are told only in the Supporting information; Homotetramer in the crystal structures; also called SpPYK; PYK
stoichiometry N [7]: 4
